Measurements as given in patent US20260219274A1, “POLYOL SWEETNERS AND CARDIOVASCULAR AND THROMBOTIC EVENT RISK” (THE CLEVELAND CLINIC FOUNDATION, priority 2023, published 2026).

Key:
[1] = tested on: stable subjects undergoing elective diagnostic cardiac evaluations (Discovery Cohort); conditions: in vivo
Excerpt: Our first study employed a Discovery Cohort, where we used untargeted metabolomics (semi-quantitative analyses) to analyze plasma samples from 1,157 stable subjects to identify circulating analytes whose levels were associated with future development of adverse cardiovascular events over an ensuing 3 year period. The Discovery Cohort included sequential stable patients (ages 18 years or above) undergoing elective diagnostic coronary angiography for risk evaluation at a quaternary referral center between 2001 and 2007 (GeneBank at the Cleveland Clinic; clinicaltrials.gov identifier: NCT00590200) with clinical and longitudinal outcomes.
In both, the Discovery and Validation Cohorts, Major Adverse Cardiovascular Events (MACE) were defined as death, nonfatal myocardial infarction, or nonfatal cerebrovascular accident (stroke) during follow-up. Adjudicated long term survival data were collected through medical records review and Social Security Death Index query. Cardiovascular disease (CVD) was indicated as presence of peripheral artery disease or coronary artery disease, indicated as any clinical history of myocardial infarction, coronary revascularization (including percutaneous coronary intervention, coronary artery bypass surgery), or angiographic evidence of significant stenosis (≥50%) in 1 or more major coronary arteries. Estimated glomerular filtration rate (eGFR) in both cohorts was calculated based on the recent Chronic Kidney Disease Epidemiology Collaboration 2021 CKD-EPI Creatinine equation.^37 Platelet-related hematology analyses were performed with an Advia 120 hematology analyzer (Siemens, New York, NY).^38 Use of anti-platelet agents (=1556) was defined as either aspirin or a P2Y12 agent or both. All observational studies in this example are reported in compliance with the STrengthening the Reporting of Observational studies in Epidemiology (STROBE)-Statement.^39 Information on gender of study participants of the Discovery and Validation Cohorts is reported in Table 1-3.
For untargeted mass spectrometry analyses, subject plasma samples were derivatized and run on GC-MS analyses as previously described.^19 Raw data files were processed using the metabolomics BinBase database.^45
Continuous variables are summarized as median (interquartile range [IQR]), and categorical variables are presented as %. Difference between groups (e.g. tertiles or quartiles) were examined using Kruskal Wallis test for continuous variables and chisq (χ^2) test for categorical variables. Kaplan-Meier analysis with Cox proportional-hazards regression was used for time-to-event analysis to determine hazard ratios (HR) and 95% confidence intervals (CI) for incident MACE. Adjustments included traditional cardiovascular risk factors (age, sex, diabetes mellitus, systolic blood pressure, low-density lipoprotein cholesterol levels, high-density lipoprotein cholesterol levels, triglyceride levels, smoking status) and high-sensitivity C-reactive protein (hsCRP). We confirmed that the proportionality hazards assumptions were met using the Schoenfeld residuals against the transformed time. Mann-Whitney U-test or Wilcoxon matched-pairs signed rank test were applied to continuous variables to examine differences between 2 groups. Kruskal-Wallis test with Dunn's post hoc test was used for pairwise multiple comparisons of ranked data. Two-way ANOVA with Šidák's multiple comparison post hoc test was used for multiple-group comparisons of aggregometry responses using different concentrations of agonists. For analysis of collagen-dependent platelet adhesion in whole blood, a two-way repeated measures ANOVA with Sidák's multiple comparison post hoc test was used. All reported measurements represent distinct samples. Data analyses were performed with R software (version 4.0.2) and GraphPad Prism software (version 9.1.2). A two-sided P<0.05 was considered statistically significant. […]

[2] = tested on: human platelet-rich plasma; assay: Aggregometry in platelet-rich plasma; assay type: cell-based; conditions: PRP incubated with the polyol versus vehicle, submaximal agonist
Procedure: Aggregometry in platelet rich plasma (PRP) was performed as previously described^40 and outlined in supplemental methods.
Platelet rich plasma (PRP) was isolated as previously described.^5 Whole blood was drawn from healthy donors and anticoagulated with sodium citrate (0.109 M). PRP was prepared by centrifuging at 100×g for 10 min at 22° C. Platelet poor plasma (PPP) was obtained by additional centrifugation of the remaining blood samples at 11,000×g for 2 min. Next, platelets were counted with a hemocytometer and the platelet concentration adjusted to 2×10^8/mL using PPP. PRPs were then pre-incubated with xylitol (Catalogue #X3375-5G, Sigma, St. Louis, MO, USA) at indicated concentrations or vehicle (saline) for 30 min at 22° C. After exposure to xylitol or vehicle, PRPs were maintained in suspension with constant stirring (600 rpm) at 37° C. Subsequently, platelet aggregation was induced by adding the agonists ADP (up to 5 μM, Catalogue #384, Chronolog, Havertown, PA, US) or TRAP6 (TFLLR-NH2, up to 10 μM, Catalogue #464, Tocris, Bristol, UK). For all platelet aggregometry experiments, blood was always processed within approx. 30 minutes of collection, and isolated platelets were used within 120 minutes of isolation. When used, pairs of vehicle vs. xylitol incubated PRP were always incubated and analyzed together (beginning, middle, end of platelet prep use) and after 120 minutes post isolation, PRPs were not used anymore.
Platelet rich plasma (PRP) and platelet poor plasma (PPP) was prepared as previously described with sodium citrate (0.109 M) as anticoagulant^51. Platelets were counted and concentrations adjusted to 2×10^8/mL with PPP. PRPs were pre-incubated with erythritol (Catalogue #E7500, Sigma, St. Louis, MO, USA), glucose (Catalogue #G7021, Sigma, St. Louis, MO, USA) or 1,5-AHG (Catalogue #29874, Cayman Chemical, Ann Arbor, Michigan, USA) (at indicated concentrations) or vehicle (saline) for 30 min at 22° C. After pre-incubation PRPs were maintained in suspension with constant stirring (600 rpm) at 37° C. and platelet aggregation was initiated using ADP (up to 5 μM, Catalogue #384, Chronolog, Havertown, PA, US) or TRAP6 (TFLLR-NH2, up to […], Catalogue #464, Tocris, Bristol, UK).

[3] = tested on: platelets of healthy volunteers; assay: Erythritol or glucose ingestion: platelet aggregation and granule release; assay type: in vivo, human
Procedure: (§1) This single center trial was approved by the Cleveland Clinic Institutional Review Board (clinicaltrials.gov identifier NCT04731363). Following subject consent (nonsmokers without CVD, hypertension, or diabetes), blood was drawn after overnight fast and 30 min following consumption of water containing 30 g of […] glucose (n=10, 30.1±11 years of age, 40% male), or erythritol (n=10, 30.5±8 years of age, 50% male), a quantity commonly found in erythritol-sweetened foods and the daily intake of some subjects based on 2013-2014 National Health and Nutrition Examination Survey (NHANES) data and FDA filings.(4,5).
(§2) Following erythritol consumption, postprandial circulating erythritol levels (assessed using stable-isotope-dilution liquid-chromatography tandem mass spectrometry (LC/MS/MS)3) were >1000-fold increased compared to baseline levels (median[inter quartile range], 6480[5930-7300]μM versus 3.75[3.35-3.87]μM, P<0.0001). In contrast, circulating erythritol levels remained similar before versus after glucose consumption (3.0[2.6-4.0]μM versus 2.9[2.7-3.8]μM, P=0.87; glucose levels before versus after 86.5(81.8-93.0) versus 127.0(122.3-132.3), P=0.002). […] In contrast, glucose consumption had no effect on platelet aggregation.

clinical = conditions: both, human, in vivo
Procedure: as §1, §2

Row | SMILES | association with cardiovascular event risks / MACE [1] | stimulus-dependent platelet aggregation response to ADP and TRAP6 [2] | platelet aggregation responses to ADP and TRAP6 after ingestion ([3]; 30 min after 30 g vs baseline) | stimulus-dependent release of alpha granule marker CXCL4 ([3]; TRAP6 (7.5 μM), ADP (2.0 μM), after ingestion) | stimulus-dependent release of dense granule marker serotonin ([3]; TRAP6 and ADP, after ingestion) | glucose levels (clinical) | glucose levels (clinical; 30 min)
1 | OC[C@H]1OC[C@H](O)[C@@H](O)[C@@H]1O [1,5-AHG, 1,5-anhydroglucitol, reference compound] | negatively associated | no effect |  |  |  |  | 
2 | O=C[C@H](O)[C@@H](O)[C@H](O)[C@H](O)CO [glucose, reference compound] |  | no effect | no effect | no differences | no differences | 86.5(81.8-93.0) | 127.0(122.3-132.3)
